Measured values as given in paper PMC4081830, “Structure of the Trehalose-6-phosphate Phosphatase from Brugia malayi Reveals Key Design Principles for Anthelmintic Drugs” (PLoS Pathogens, 2014).

What was measured:
[1] = molecular target: T1, B. malayi T6PP (trehalose-6-phosphate phosphatase), wild type (Brugia malayi, UniProt A8NS89); test: inhibition kinetics; assay type: biochemical
T1 construct: gene Bm1_08695; full-length (492 residues) from cDNA library, modified pET-15b(TEV), E. coli T7 Express; N-terminal His-tag removed by TEV protease
T1 sequence (A8NS89 1-492): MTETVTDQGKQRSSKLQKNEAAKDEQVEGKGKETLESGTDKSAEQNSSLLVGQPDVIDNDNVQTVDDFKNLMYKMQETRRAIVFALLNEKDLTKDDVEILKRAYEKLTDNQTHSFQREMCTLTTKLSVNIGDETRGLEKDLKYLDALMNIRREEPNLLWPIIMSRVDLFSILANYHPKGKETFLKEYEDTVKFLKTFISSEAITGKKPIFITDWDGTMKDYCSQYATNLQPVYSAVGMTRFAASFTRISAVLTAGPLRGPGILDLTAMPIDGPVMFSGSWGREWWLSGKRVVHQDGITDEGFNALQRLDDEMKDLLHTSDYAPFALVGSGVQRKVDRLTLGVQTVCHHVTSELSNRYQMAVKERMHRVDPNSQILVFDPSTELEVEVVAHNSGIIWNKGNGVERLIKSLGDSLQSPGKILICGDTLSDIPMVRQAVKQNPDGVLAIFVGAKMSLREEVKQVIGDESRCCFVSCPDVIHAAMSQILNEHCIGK

[2] = molecular target: T1, B. malayi T6PP (trehalose-6-phosphate phosphatase), wild type; test: steady-state inhibition kinetics, EnzChek phosphate assay; assay type: biochemical; conditions: read-out: KI, trehalose 6-sulfate
[3] = molecular target: T2, B. malayi T6PP (trehalose-6-phosphate phosphatase), wild type (Brugia malayi, UniProt A8NS89, R337A); test: biochemical
T2 construct: gene Bm1_08695
Description: (§1) steady-state inhibition kinetics, EnzChek phosphate assay on B. malayi T6PP (trehalose-6-phosphate phosphatase), wild type

[4] = molecular target: T3, B. malayi T6PP (trehalose-6-phosphate phosphatase), wild type (Brugia malayi, UniProt A8NS89, Q332A); test: biochemical
T3 construct: gene Bm1_08695
Description: as §1

[5] = molecular target: T4, B. malayi T6PP (trehalose-6-phosphate phosphatase), wild type (Brugia malayi, UniProt A8NS89, K334A); test: biochemical
T4 construct: gene Bm1_08695
Description: as §1

[6] = molecular target: T5, B. malayi T6PP (trehalose-6-phosphate phosphatase), wild type (Brugia malayi, UniProt A8NS89, N228A); test: biochemical
T5 construct: gene Bm1_08695
Description: as §1

[7] = molecular target: T6, B. malayi T6PP (trehalose-6-phosphate phosphatase), wild type (Brugia malayi, UniProt A8NS89, S329A); test: biochemical
T6 construct: gene Bm1_08695
Description: as §1

[8] = molecular target: T7, B. malayi T6PP (trehalose-6-phosphate phosphatase), wild type (Brugia malayi, UniProt A8NS89, Y225A); test: biochemical
T7 construct: gene Bm1_08695
Description: as §1

[9] = molecular target: T8, B. malayi T6PP (trehalose-6-phosphate phosphatase), wild type (Brugia malayi, UniProt A8NS89, D378A); test: biochemical
T8 construct: gene Bm1_08695
Description: as §1

[10] = molecular target: T9, B. malayi T6PP (trehalose-6-phosphate phosphatase), wild type (Brugia malayi, UniProt A8NS89, Y221A); test: biochemical
T9 construct: gene Bm1_08695
Description: as §1

[11] = molecular target: T10, B. malayi T6PP (trehalose-6-phosphate phosphatase), wild type (Brugia malayi, UniProt A8NS89, W280A); test: biochemical
T10 construct: gene Bm1_08695
Description: as §1

[12] = molecular target: T11, B. malayi T6PP (trehalose-6-phosphate phosphatase), wild type (Brugia malayi, UniProt A8NS89, E384A); test: biochemical
T11 construct: gene Bm1_08695
Description: as §1

[13] = tested on: O=P(O)(O)OC[C@H]1O[C@H](O[C@H]2O[C@H](CO)[C@@H](O)[C@H](O)[C@H]2O)[C@H](O)[C@@H](O)[C@@H]1O; test: steady-state kinetics, EnzChek phosphate assay; assay type: biochemical, Brugia malayi; conditions: 25 mM Tris pH 7.5, 50 mM NaCl, 5 mM MgCl2
Description: steady-state kinetics, EnzChek phosphate assay on T6PP-Δ59

[14] = substrate: O=P(O)(O)OC[C@H]1O[C@H](O[C@H]2O[C@H](CO)[C@@H](O)[C@H](O)[C@H]2O)[C@H](O)[C@@H](O)[C@@H]1O; test: steady-state kinetics, EnzChek phosphate assay; assay type: biochemical, Brugia malayi; conditions: 25 mM Tris pH 7.5, 50 mM NaCl, 5 mM MgCl2; remark: listed apart in the source
Description: steady-state kinetics, EnzChek phosphate assay on B. malayi T6PP (trehalose-6-phosphate phosphatase), wild type

## O=P(O)(O)OC[C@H]1OC(O)[C@H](O)[C@@H](O)[C@@H]1O (stereo partly shown) [glucose 6-phosphate]
[1]; no inhibition, substrate trehalose 6-phosphate
  Ki: > 10000 µM

## O=S(=O)(O)OC[C@H]1O[C@H](O[C@H]2O[C@H](CO)[C@@H](O)[C@H](O)[C@H]2O)[C@H](O)[C@@H](O)[C@@H]1O [trehalose 6-sulfate]
[2]
  Ki: 82 ± 7 µM
[3]
  Ki: 700 ± 100 µM
[4]
  Ki: 1000 µM
[5]
  Ki: 150 ± 20 µM
[6]
  Ki: 16 ± 2 µM
[7]
  Ki: 240 ± 30 µM
[8]
  Ki: 400 ± 40 µM
[9]
  Ki: 320 ± 30 µM
[10]
  Ki: 1300 µM
[11]
  Ki: 270 ± 50 µM
[12]
  Ki: 200 ± 30 µM

## OC[C@H]1O[C@H](O[C@H]2O[C@H](CO)[C@@H](O)[C@H](O)[C@H]2O)[C@H](O)[C@@H](O)[C@@H]1O [trehalose]
[1]
  Ki: > 10000 µM

## T6PP-Δ59 (Brugia malayi)
[13]
  Km: 260 ± 20 µM
  kcat: 28 ± 1 s⁻¹
  kcat/Km: 110000 M⁻¹ s⁻¹

B1: B. malayi T6PP (trehalose-6-phosphate phosphatase), wild type (Brugia malayi) (protein)
chain: T1 sequence (A8NS89 1-492)
notes: full-length (492 residues) from cDNA library, modified pET-15b(TEV), E. coli T7 Express; N-terminal His-tag removed by TEV protease
[14]
  Km: 360 ± 60 µM
  kcat: 24 ± 2 s⁻¹
  kcat/Km: 69000 M⁻¹ s⁻¹
